Molecules are shown by their SMILES.

This assay addresses T1, GBA3 (Homo sapiens, UniProt Q9H227).
T1 construct: expressed in transfected cells; host or cells: HEK293T GBA1/GBA2 KO, GBA3 overexpressed
T1 sequence (Q9H227 1-469): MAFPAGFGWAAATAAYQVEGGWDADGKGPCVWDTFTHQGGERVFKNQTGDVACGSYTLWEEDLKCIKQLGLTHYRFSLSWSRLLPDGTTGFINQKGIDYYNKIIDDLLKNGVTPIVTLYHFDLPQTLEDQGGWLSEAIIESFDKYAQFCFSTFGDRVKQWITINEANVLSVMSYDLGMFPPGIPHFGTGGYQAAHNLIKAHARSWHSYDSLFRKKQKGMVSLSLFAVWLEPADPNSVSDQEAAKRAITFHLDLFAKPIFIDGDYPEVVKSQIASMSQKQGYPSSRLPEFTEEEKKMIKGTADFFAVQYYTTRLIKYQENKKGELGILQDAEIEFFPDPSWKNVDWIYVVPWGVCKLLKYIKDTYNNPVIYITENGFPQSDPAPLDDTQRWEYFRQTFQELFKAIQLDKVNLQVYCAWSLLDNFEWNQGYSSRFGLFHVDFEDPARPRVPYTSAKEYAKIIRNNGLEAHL
Put plainly: 4MU fluorogenic substrate assay for apparent IC50, GBA3. In kind it is biochemical. The following applies: 30 min pre-incubation, 4MU-β-D-Glc. The text has this:
To identify an ABP that selectively labels human GBA2 over GBA1 and GBA3, a library of cyclophellitol-based ABPs with varying configurations (ESI Fig. S1 ^†) was screened for their selectivity towards human retaining β-glucosidases. For this purpose, we initially assessed the inhibition properties of the compounds using recombinant human GBA1 (rhGBA1, imiglucerase), lysates of cells overexpressing GBA2 or GBA3 (both in combination with knockout of the other retaining β-glucosidases). In a preliminary screen, enzymes were pre-incubated for 30 min with the tested compounds, followed by the addition of the fluorogenic substrate, 4MU-β-D-Glc, and subsequent quantification of released fluorescent 4MU after 30 minutes. This screening brought our attention to a new set of β-D-Araf cyclitol aziridines as potential GBA2 inhibitors. […] On the other hand, the biotin-tagged β-D-Araf compound 6 is a poor inhibitor of all three glucosidases (apparent IC50 > 8 μM). Arabinofuranosyl cyclitol 12–20 with various configurations (α-L-Araf and β-L-Araf) were also evaluated (ESI Fig. S1 ^†).
Recombinant human GBA1 (rhGBA1, Imiglucerase) was kindly provided by Sanofi Genzyme (Cambridge, MA, USA). 4-Methylumbelliferyl-β-D-glucopyranoside substrates were purchase from Glycosynth (Warrington Cheshire, UK). Protein concentration was measured using the Pierce BCA assay kit (Thermo Fisher Scientific, Waltham, MA, USA). Harvested cells (cell pellets), cell lysates and tissue homogenates not used directly were stored at -80 °C.
HEK293T (CRL‐3216™) cells were purchased from ATCC (Manassas, VA, USA). HEK293T cells were cultured in DMEM medium (Sigma‐Aldrich), supplied with 10% (v/v) FCS, 0.1% (w/v) penicillin/streptomycin and 1% (v/v) Glutamax, under 37 °C and 5% or 7% CO2. […]
2.3 Generation of cells genetically modified for β-glucosidase expression For overexpression of the different β-glucosidases, "wildtype" HEK293T cells, HEK293T cells with GBA2 knockout (KO) or HEK293T cells with both GBA1 and GBA2 KO were used, following by the overexpression (OE) of targeted β-glucosidases using the constructs as described in references.1,2 Either GBA2 or GBA3 were overexpressed in GBA1/GBA2 KO HEK293T (generated by the CRISPR/Cas9 method2) to generate GBA1/2 KOs with GBA2 (or GBA3) for overexpression in HEK293T cells as indicated, or using "wildtype" HEK293T cells containing endogenous GBA1 and GBA2 to overexpress both GBA2 and GBA3, these were generated as described in our previous report.1,2 […]
Cells were cultured with the method described above to 80-90% confluency, and were isolated, washed with Dulbecco′s phosphate buffered saline (PBS) and subsequently collected using the following method.3 HEK293T and RPE-1 cells were easily detached from the culture plate by trypsin treatment after which some DMEM medium was added. The cells were collected by pipetting and DMEM medium was removed by centrifuging. The cells were washed with cold PBS three times, after which they were centrifuged to remove PBS and then stored at –80 °C for further use or lysed in potassium phosphate buffer (K2HPO4-KH2PO4, 25 mM, pH 6.5, supplemented with 0.1% (v/v) Triton X-100 and protease inhibitor cocktail (EDTA-free, Roche, Basel, Switzerland)) by sonication with a Polytron PT 1300D sonicator (Kinematica, Luzern, Switzerland). After sonication, lysed mixtures were centrifuged at 10,000 x g for 3 min at 4°C, and the supernatants where desired β-glucosidases exist were used for the experiment.
2.5 4MU fluorogenic substrate assay for apparent IC50 determination
4MU fluorogenic substrate assays (using recombination human rhGBA1 or lysates of HEK293T cells) were conducted in 96-well plates at 37 °C. Samples were diluted with McIlvaine buffer (150 mM citric acid-Na2HPO4) to a final volume of 25 μL, at the appropriate pH for each enzyme. Assays were performed by incubating the samples with 100 μL 4-methylumbelliferyl-β-D-glucopyranoside substrate diluted in McIlvaine buffer for a period of 30 min. […]

Setting [1] is: GBA1/GBA2 KO GBA3 OE HEK293T cell lysate, pH 6.0, n = 3 for β-D-Araf, n = 1 for α-L-Araf and β-L-Araf.

As for `CC1=CC(C)=[N+]2C1=C(CCCCc1cn(CCCCCCCCN3[C@@H]4[C@H](CO)[C@@H](O)[C@H](O)[C@@H]43)nn1)c1c(C)cc(C)n1[B-]2(F)F` (some centres unmarked) [ABP 3], under setting [1], the IC50 is more than 10 µM. `COc1ccc(C2=[N+]3C(=C(CCCCc4cn(CCCCCCCCN5[C@@H]6[C@H](CO)[C@@H](O)[C@H](O)[C@@H]65)nn4)c4ccc(-c5ccc(OC)cc5)n4[B-]3(F)F)C=C2)cc1` (some centres unmarked) [ABP 4]: the IC50 under setting [1] is more than 10 µM. Regarding `CN1/C(=C/C=C/C=C/C2=[N+](CCCCCC(=O)NCc3cn(CCCCCCCCN4[C@@H]5[C@H](CO)[C@@H](O)[C@H](O)[C@@H]54)nn3)c3ccccc3C2(C)C)C(C)(C)c2ccccc21` (some centres unmarked) [ABP 5], the IC50 under setting [1] came out at 1.52 ± 0.159 µM.

For `O=C(CCCC[C@@H]1SC[C@@H]2NC(=O)N[C@@H]21)NCc1cn(CCCCCCCCN2[C@@H]3[C@H](CO)[C@@H](O)[C@H](O)[C@@H]32)nn1` (some centres unmarked) [ABP 6], the IC50 is more than 8 µM. Besides, the IC50 under setting [1] came to 10.3 ± 1.9 µM. Turning to `OC[C@@H]1[C@@H](O)[C@H](O)[C@@H]2N[C@H]12` [Compound 1, β-D-Arabinofuranosyl cyclitol aziridine], the IC50 was more than 50 µM. Also, the half-inhibitory concentration (IC50) under setting [1] was more than 50 µM. As for `[N-]=[N+]=NCCCCCCCCN1[C@@H]2[C@H](CO)[C@@H](O)[C@H](O)[C@@H]21` (stereo partly drawn) [Compound 2, β-D-arabinofuranosyl cyclitol aziridine-azidooctyl], the IC50 under setting [1] came to 8.15 µM.

A word on the IC50: it is the concentration needed to halve the response being measured.

Values taken from publication PMC11375437, “Selective labelling of GBA2 in cells with fluorescent β-D-arabinofuranosyl cyclitol aziridines” (Chemical Science, 2024).
